Results: patent US8906848B2, “Aureobasidin derivatives and methods of synthesis” (priority 2011, dated 2014)
Where two headings read alike, the source gives them in different places. Starred links: 1 amine or outer side, 2 acyl side, 3 side chain; linkers in the order of their positions; H or OH if unused. Non-standard residues stand in square brackets, D forms with d. Residues, ends and D or L forms follow the SMILES beside them. NMePhe(3-(3-pyridyl)) = CN[C@@H](Cc1cccc(-c2cccnc2)c1)C(=O)O; NMePhe(3-Ph) = CN[C@@H](Cc1cccc(-c2ccccc2)c1)C(=O)O; X2 = CN([C@@H](Cc1cccc(B(O)O)c1)C(=O)[*:2])[*:1]; NMePhe(3-Br) = CN[C@@H](Cc1cccc(Br)c1)C(=O)O; Phe(3-Br) = N[C@@H](Cc1cccc(Br)c1)C(=O)O; X1 = CC[C@@H](C)[C@@H](O[*:1])C(=O)[*:2]; NMeVal(β-OH) = CN[C@H](C(=O)O)C(C)(C)O; aIle = CC[C@@H](C)[C@H](N)C(=O)O; NMeV = CN[C@H](C(=O)O)C(C)C

How the values were obtained:
[1] = system: C. albicans; assay: MIC, broth dilution CLSI M38-A2 with YPD medium (Table 2); format: cell-based
Experimental: (§1) The activities of several exemplary compounds of the present invention were assayed according to the CLSI standard M38-A2 titled “Reference Method for Broth Dilution Antifungal Susceptibility Testing of Filamentous Fungi”. However, the RPMI-1640 broth is substituted for a YPD medium formulated according to the following steps: […]
(§2) 1. Dissolve 10 g of BactoYeast extract in 500 ml water
(§3) 2. Dissolve 20 g of BactoPeptone in the above solution
(§4) 3. Dissolve 20 g Dextrose in the above solution* *Ordinary table sugar (sucrose) substituted for dextrose routinely.
(§5) 4. q.s. to 1000 ml with water

[2] = Pharmacokinetic study in mice, oral gavage, plasma by HPLC-MS; format: in vivo; conditions: single 200 mg/kg oral gavage
Experimental: Referring to FIG. 5, mice were administered a single 200 mg/kg bolus dose of 3-pyridyl-mPhe^4-AbA (diamonds) or AbA (squares), by oral gavage. Blood was collected a timed intervals after administration of the drug and analyzed for compound content by HPLC-MS.

[3] = system: Candida albicans SC5413; assay: Candidiasis model in immunosuppressed mice, mortality; format: in vivo
Experimental: Referring to FIG. 6, Mice, immunosuppressed with cyclophosphamide, were inoculated with 8 log 10 CFU Candida albicans SC5413 and dosed (following inoculation) with 3-pyridyl-mPhe^4-AbA (or a control antibiotic) orally, BID, for four consecutive days. Efficacy was determined by enumerating mortality.

[4] = system: Candida species, including C. albicans; conditions: virtually all Candida species; cited from earlier work
[5] = system: Cryptococcus species, including C. neoformans; conditions: most Cryptococcus species; cited from earlier work
[6] = system: Aspergilli, A. fumigatus; conditions: most Aspergilli, most notably A. fumigatus; cited from earlier work
[7] = animals and humans; cited from earlier work
[8] = system: Fusarium oxysporum 0893 (ATCC48112); assay: MIC, antifungal spectrum (Table 3); format: cell-based; conditions: at 96 hr
Experimental: as §1, §2, §3, §4, §5

[9] = system: Sporothrix schenkii 892 (ATCC14284); assay: MIC, antifungal spectrum (Table 3); format: cell-based; conditions: at 96 hrs
Experimental: as §1, §2, §3, §4, §5

[10] = system: Trychophyton mentagrophytes 5278 (ATCC MYA-4439); assay: MIC, antifungal spectrum (Table 3); format: cell-based; conditions: at 96 hrs
Experimental: as §1, §2, §3, §4, §5

[11] = system: Trychophyton rubrum 5279 (ATCC MYA-4438); assay: MIC, antifungal spectrum (Table 3); format: cell-based; conditions: at 72 hrs
Experimental: as §1, §2, §3, §4, §5

[12] = system: A. fumigatus; assay: MIC, broth dilution CLSI M38-A2 with YPD medium (Table 2); format: cell-based; conditions: compound purity ~85%
Experimental: as §1, §2, §3, §4, §5

[13] = YPD medium, compound purity ~85%

CCC(C)[C@@H]1NC(=O)[C@@H]2CCCN2C(=O)[C@H](Cc2ccccc2)N(C)C(=O)[C@H](Cc2ccccc2)NC(=O)[C@H](C(C)C)N(C)C(=O)[C@@H](C(C)CC)OC(=O)C(C(C)(C)O)N(C)C(=O)[C@H](CC(C)C)NC(=O)[C@H](C(C)C)N(C)C1=O (stereo in doubt) [AbA (native), Aureobasidin A]
MIC for C. albicans [1, 13]: <0.05 mg/L | plasma concentration trend at the end of the 12 hour experiment [2]: decreasing | ED50 ([3]; cyclophosphamide-immunosuppressed mice, oral, BID, four consecutive days, mortality): about 25 mg/kg | efficacy against Candida species [4]: very efficacious | efficacy against Cryptococcus species [5]: efficacious | activity towards Aspergilli [6]: little activity | tolerability [7]: very well tolerated

CC[C@@H](C)[C@@H]1NC(=O)[C@@H]2CCCN2C(=O)[C@H](Cc2cccc(-c3cccnc3)c2)N(C)C(=O)[C@H](Cc2ccccc2)NC(=O)[C@H](C(C)C)N(C)C(=O)[C@@H]([C@H](C)CC)OC(=O)[C@H](C(C)(C)O)N(C)C(=O)[C@H](CC(C)C)NC(=O)[C@H](C(C)C)N(C)C1=O [3-pyridyl-mPhe^4-AbA] (cyclo([X1][NMeV]F[NMePhe(3-(3-pyridyl))]P[aIle][NMeV]L[NMeVal(β-OH)]))
MIC for C. albicans [1]: <0.05 mg/L | MIC [8]: >64 at 96 hr μg/ml | MIC [9]: >64 at 96 hrs μg/ml | MIC [10]: 0.5 at 96 hrs μg/ml | MIC [11]: 2 at 72 hrs μg/ml | bioavailability and/or clearance as compared to the native drug [2]: enhanced bioavailability and/or a slower clearance | plasma concentration trend at the end of the 12 hour experiment [2]: still be increasing | plasma concentrations compared with the same dose of native AbA ([2]; same vehicle): significantly higher plasma concentrations | ED50 of native AbA relative to that of 3-pyridyl-mPhe^4-AbA ([3]; Candidiasis model, mice, oral BID four days): almost four times higher

CC[C@@H](C)[C@@H]1NC(=O)[C@@H]2CCCN2C(=O)[C@H](Cc2cccc(B(O)O)c2)N(C)C(=O)[C@H](Cc2ccccc2)NC(=O)[C@H](C(C)C)N(C)C(=O)[C@@H]([C@H](C)CC)OC(=O)[C@H](C(C)(C)O)N(C)C(=O)[C@H](CC(C)C)NC(=O)[C@H](C(C)C)N(C)C1=O [B(OH)2-mPhe^4-AbA] (cyclo([X1][NMeV]F[X2]P[aIle][NMeV]L[NMeVal(β-OH)]))
MIC for C. albicans [1]: <0.05 mg/L

CC[C@@H](C)[C@@H]1NC(=O)[C@@H]2CCCN2C(=O)[C@H](Cc2cccc(Br)c2)N(C)C(=O)[C@H](Cc2cccc(Br)c2)NC(=O)[C@H](C(C)C)N(C)C(=O)[C@@H]([C@H](C)CC)OC(=O)[C@H](C(C)(C)O)N(C)C(=O)[C@H](CC(C)C)NC(=O)[C@H](C(C)C)N(C)C1=O [Br-Phe^3-Br-mPhe^4-AbA] (cyclo([X1][NMeV][Phe(3-Br)][NMePhe(3-Br)]P[aIle][NMeV]L[NMeVal(β-OH)]))
MIC for C. albicans [1]: 5 mg/L

CC[C@@H](C)[C@@H]1NC(=O)[C@@H]2CCCN2C(=O)[C@H](Cc2cccc(-c3ccccc3)c2)N(C)C(=O)[C@H](Cc2ccccc2)NC(=O)[C@H](C(C)C)N(C)C(=O)[C@@H]([C@H](C)CC)OC(=O)[C@H](C(C)(C)O)N(C)C(=O)[C@H](CC(C)C)NC(=O)[C@H](C(C)C)N(C)C1=O [Phenyl-mPhe^4-AbA] (cyclo([X1][NMeV]F[NMePhe(3-Ph)]P[aIle][NMeV]L[NMeVal(β-OH)]))
MIC for C. albicans [1]: <0.05 mg/L

Boronate-mPhe^4-AbA
MIC for A. fumigatus [12]: 10 mg/L | MIC for C. albicans [1, 13]: <0.5 mg/L

Br-mPhe^4-AbA
MIC for A. fumigatus [12]: 2.5 mg/L | MIC for C. albicans [1, 13]: 0.031 mg/L

I-mPhe^4-AbA
MIC for A. fumigatus [12]: >5 mg/L | MIC for C. albicans [1, 13]: 2.5 mg/L

MeO-φ-mPhe^4-AbA
MIC for C. albicans [1, 13]: 5 mg/L
